The text below walks through data of patent publication US10100019B2.

Structures are written as SMILES. Where a name gives a salt, the structure may show the parent alone. Read-outs that look alike come from different tables or passages of the source.

One data set has as its system H3122 cells. As to the kind of experiment: Cytotoxicity in non-small cell lung cancer cell line H3122 (SRB). It counts as cell-based, human. As to the method: Particularly, 4,000 H3122 cells containing ALK enzyme were distributed in each well of a 96 well plate together with 100 μl of DMEM (Dulbecco's Modified Eagle's Medium). One day later, the compound of the present invention was added to each well at different concentrations of […]. DMSO (dimethylsulfoxide) was added to the well that was not loaded with the compound by the same amount as the compound. Three days after the addition of the compound, DMEM was eliminated. 10% TCA (trichloroacetic acid) was added to fix the cells. The wells were washed with running water three times and the live cells were stained with SRB solution (1 sulphorodamine B). Then, OD was measured to calculate the population of the live cells.

Another data set has as its system H2228 cells. As to the kind of experiment: cells. The settings on record: Homo sapiens, NCI-H2228, 72 h.
Setting [1] is: Homo sapiens, NCI-H3122, 72 h, H3122 cells, three days, SRB.
Where [2] appears, read: read-out: Cytotoxicity H2228 (GI50 μM), H2228 cells, three days, SRB.

One may read the GI50 as the concentration that inhibits growth by half. In the case of `COc1ccc(CCNC(C)=O)cc1Nc1ncc(Cl)c(Nc2ccccc2S(=O)(=O)C(C)C)n1` [Example 7, N-(3-(5-chloro-4-(2-(isopropylsulfonyl)phenylamino)pyrimidine-2-ylamino)-4-methoxyphenethyl)acetamide], the GI50 with H3122 cells (setting [1]) was determined as 0.79 µM; with H2228 cells (setting [2]), 0.8 µM.

Consider `COc1ccc(CCNS(C)(=O)=O)cc1Nc1ncc(Cl)c(Nc2ccccc2S(=O)(=O)C(C)C)n1` [Example 8, N-(3-(5-chloro-4-(2-(isopropylsulfonyl)phenylamino)pyrimidine-2-ylamino)-4-methoxyphenethyl) methanesulfonamide], for which the GI50 turned out to be 1.9 µM with H3122 cells (setting [1]) and 0.88 µM in the data set with H2228 cells (setting [2]).

On to `COc1ccc(CCN(C)C)cc1Nc1ncc(Cl)c(Nc2ccccc2S(=O)(=O)C(C)C)n1` [Example 9, 5-chloro-N2-(5-(2-(dimethylamino)ethyl)-2-methoxyphenyl)-N4-(2-(isopropylsulfonyl)phenyl)pyrimidine-2,4-diamine], for which the GI50 in the data set with H3122 cells (setting [1]) stood at 0.22 µM; in the data set on H2228 cells (setting [2]), 0.23 µM.

Turning to `CNCCc1ccc(OC)c(Nc2ncc(Cl)c(Nc3ccccc3S(=O)(=O)C(C)C)n2)c1` [Example 10, 5-chloro-N4-(2-(isopropylsulfonyl)phenyl)-N2-(2-methoxy-5-(2-(methylamino)ethyl)phenyl)pyrimidine-2,4-diamine], the concentration for 50% growth inhibition (GI50) in the data set on H3122 cells (setting [1]) came out at 1.2 µM; in the data set with H2228 cells (setting [2]), 1.8 µM.

Regarding `COc1ccc(CCNCc2ccccc2)cc1Nc1ncc(Cl)c(Nc2ccccc2S(=O)(=O)C(C)C)n1` [Example 11, N2-(5-(2-(benzylamino)ethyl)-2-methoxyphenyl)-5-chloro-N4-(2-(isopropylsulfonyl)phenyl)pyrimidine-2,4-diamine], the GI50 with H3122 cells (setting [1]) and in the data set with H2228 cells (setting [2]) was 1.4 µM throughout.

Regarding `COc1ccc(CCNC(=O)Cc2ccccc2)cc1Nc1ncc(Cl)c(Nc2ccccc2S(=O)(=O)C(C)C)n1` [Example 12, N-(3-(5-chloro-4-(2-(isopropylsulfonyl)phenylamino)pyrimidine-2-ylamino)-4-methoxyphenethyl)-2-phenylacetamide], the GI50 in the data set on H3122 cells (setting [1]) turned out to be 4.7 µM; in the data set with H2228 cells (setting [2]), 1.1 µM.

Take `CCNCCc1ccc(OC)c(Nc2ncc(Cl)c(Nc3ccccc3S(=O)(=O)C(C)C)n2)c1` [Example 13, 5-chloro-N2-(5-(2-(ethylamino)ethyl)-2-methoxyphenyl)-N4-(2-(isopropylsulfonyl)phenyl)pyrimidine-2,4-diamine]: the concentration for 50% growth inhibition (GI50) came out at 0.99 µM in the data set with H3122 cells (setting [1]) and 0.87 µM in the data set with H2228 cells (setting [2]).

`CCN(CC)CCc1ccc(OC)c(Nc2ncc(Cl)c(Nc3ccccc3S(=O)(=O)C(C)C)n2)c1` [Example 14, 5-chloro-N2-(5-(2-(diethylamino)ethyl)-2-methoxyphenyl)-N4-(2-(isopropylsulfonyl)phenyl)pyrimidine-2,4-diamine]: the GI50 in the data set on H3122 cells (H3122 cells, three days, SRB) is 0.05 µM; in the data set on H3122 cells (setting [1]), no more than 0.1 µM; with H2228 cells (setting [2]), 0.09 µM.

In the case of `COc1ccc(CCNC(C)C)cc1Nc1ncc(Cl)c(Nc2ccccc2S(=O)(=O)C(C)C)n1` [Example 15, 5-chloro-N2-(5-(2-(isopropylamino)ethyl)-2-methoxyphenyl)-N4-(2-(isopropylsulfonyl)phenyl)pyrimidine-2,4-diamine], the GI50 in the data set on H3122 cells (setting [1]) was 1.1 µM; in the data set on H2228 cells (setting [2]), 0.78 µM.

Consider `CCNC(=O)NCCc1ccc(OC)c(Nc2ncc(Cl)c(Nc3ccccc3S(=O)(=O)C(C)C)n2)c1` [Example 16, 1-(3-(5-chloro-4-(2-(isopropylsulfonyl)phenylamino)pyrimidine-2-ylamino)-4-methoxyphenethyl)-3-ethylurea], for which the 50% growth inhibitory concentration (GI50) in the data set on H3122 cells (setting [1]) is 0.41 µM; with H2228 cells (setting [2]) it was 0.52 µM.

Regarding `COc1ccc(CCNC(=O)NC2CCCCC2)cc1Nc1ncc(Cl)c(Nc2ccccc2S(=O)(=O)C(C)C)n1` [Example 17, 1-(3-(5-chloro-4-(2-(isopropylsulfonyl)phenylamino)pyrimidine-2-ylamino)-4-methoxyphenethyl)-3-cyclohexylurea], the results for the GI50 in the data set on H3122 cells (setting [1]) and with H2228 cells (setting [2]) were 0.88 µM and 2.3 µM, respectively.

For `COc1ccc(CCNC(=O)Nc2ccccc2)cc1Nc1ncc(Cl)c(Nc2ccccc2S(=O)(=O)C(C)C)n1` [Example 18, 1-(3-(5-chloro-4-(2-(isopropylsulfonyl)phenylamino)pyrimidine-2-ylamino)-4-methoxyphenethyl)-3-phenylurea], the values for the 50% growth inhibitory concentration (GI50) in the data set on H3122 cells (setting [1]) and in the data set on H2228 cells (setting [2]) were 3.6 µM and 4.9 µM, respectively.

Take `CNC(=S)NCCc1ccc(OC)c(Nc2ncc(Cl)c(Nc3ccccc3S(=O)(=O)C(C)C)n2)c1` [Example 19, 1-(3-(5-chloro-4-(2-(isopropylsulfonyl)phenylamino)pyrimidine-2-ylamino)-4-methoxyphenethyl)-3-methylthiourea]: the figures for the GI50 with H3122 cells (setting [1]) and with H2228 cells (setting [2]) were 1.1 µM and 10 µM, respectively.

`COc1ccc(CCNC(=S)NCc2ccccc2)cc1Nc1ncc(Cl)c(Nc2ccccc2S(=O)(=O)C(C)C)n1` [Example 20, 1-benzyl-3-(3-(5-chloro-4-(2-(isopropylsulfonyl)phenylamino)pyrimidine-2-ylamino)-4-methoxyphenethyl)thiourea]: the GI50 was 0.31 µM in the data set with H3122 cells (setting [1]) and 0.42 µM in the data set on H2228 cells (setting [2]).

For `COc1ccc(CCN2CCCCC2)cc1Nc1ncc(Cl)c(Nc2ccccc2S(=O)(=O)C(C)C)n1` [Example 21, 5-chloro-N4-(2-(isopropylsulfonyl)phenyl)-N2-(2-methoxy-5-(2-(piperidine-1-yl)ethyl)phenyl)pyrimidine-2,4-diamine], the GI50 is 0.06 µM with H3122 cells; no more than 0.1 µM in the data set with H3122 cells (Homo sapiens, NCI-H3122, 72 h); 0.08 µM in the data set on H2228 cells (read-out: Cytotoxicity H2228 (GI50 μM)).

With `COc1ccc(CCN2CCOCC2)cc1Nc1ncc(Cl)c(Nc2ccccc2S(=O)(=O)C(C)C)n1` [Example 22, 5-chloro-N4-(2-(isopropylsulfonyl)phenyl)-N2-(2-methoxy-5-(2-morpholinoethyl)phenyl)pyrimidine-2,4-diamine], the GI50 with H3122 cells (setting [1]) came out at 0.27 µM; in the data set with H2228 cells (setting [2]) it was 0.46 µM.

Take `CCNC(=S)NCCc1ccc(OC)c(Nc2ncc(Cl)c(Nc3ccccc3S(=O)(=O)C(C)C)n2)c1` [Example 23, 1-(3-(5-chloro-4-(2-(isopropylsulfonyl)phenylamino)pyrimidine-2-ylamino)-4-methoxyphenethyl)-3-ethylthiourea]: the results for the GI50 in the data set with H3122 cells (setting [1]) and with H2228 cells (setting [2]) were 1.4 µM and 2.5 µM, respectively.

On to `COc1ccc(CCNc2ncccn2)cc1Nc1ncc(Cl)c(Nc2ccccc2S(=O)(=O)C(C)C)n1` [Example 25, 5-chloro-N4-(2-(isopropylsulfonyl)phenyl)-N2-(2-methoxy-5-(2-(pyrimidine-2-ylamino)ethyl)phenyl)pyrimidine-2,4-diamine], for which the values for the GI50 with H3122 cells (setting [1]) and with H2228 cells (setting [2]) were 1.3 µM and 1.5 µM, respectively.

Turning to `COC(=O)CNCCc1ccc(OC)c(Nc2ncc(Cl)c(Nc3ccccc3S(=O)(=O)C(C)C)n2)c1` [Example 26, methyl 2-(3-(5-chloro-4-(2-(isopropylsulfonyl)phenylamino)pyrimidine-2-ylamino)-4-methoxyphenethylamino)acetate], the values for the GI50 in the data set on H3122 cells (setting [1]) and in the data set with H2228 cells (setting [2]) were 0.14 µM and 0.42 µM, respectively.

Consider `COc1ccc(CCNCC(=O)O)cc1Nc1ncc(Cl)c(Nc2ccccc2S(=O)(=O)C(C)C)n1` [Example 27, 2-(3-(5-chloro-4-(2-(isopropylsulfonyl)phenylamino)pyrimidine-2-ylamino)-4-methoxyphenethylamino)acetic acid], for which the GI50 is 0.42 µM in the data set with H3122 cells (setting [1]) and 0.51 µM in the data set on H2228 cells (setting [2]).

Take `COc1ccc(CNC(=O)C(F)(F)F)cc1Nc1ncc(Cl)c(Nc2ccccc2S(=O)(=O)C(C)C)n1` [Example 28, N-(3-((5-chloro-4-((2-(isopropylsulfonyl)phenyl)amino)pyrimidine-2-yl)amino)-4-methoxybenzyl)-2,2,2-trifluoroacetamide]: the GI50 is 0.82 µM in the data set on H3122 cells (setting [1]) and 0.98 µM in the data set with H2228 cells (setting [2]).

For the compound `COc1ccc(CN)cc1Nc1ncc(Cl)c(Nc2ccccc2S(=O)(=O)C(C)C)n1` [Example 29, N2-(5-(aminomethyl)-2-methoxyphenyl)-5-chloro-N4-(2-(isopropylsulfonyl)phenyl)pyrimidine-2,4-diamine], the values for the GI50 in the data set on H3122 cells (setting [1]) and with H2228 cells (setting [2]) were 0.1 µM and 0.14 µM, respectively.

As for `COc1ccc(CCNC(=O)C(F)(F)F)cc1Nc1ncc(Cl)c(Nc2ccccc2S(=O)(=O)C(C)C)n1` [Example 30, N-(3-(5-chloro-4-(2-(isopropylsulfonyl)phenylamino)pyrimidine-2-ylamino)-4-methoxyphenethyl)-2,2,2-trifluoroacetamide], the GI50 with H3122 cells (setting [1]) is 0.48 µM; with H2228 cells (setting [2]), 0.76 µM.

Turning to `CC(C)Oc1ccc(CCN)cc1Nc1ncc(Cl)c(Nc2ccccc2S(=O)(=O)C(C)C)n1` [Example 31, N2-(5-(2-aminoethyl)-2-isopropoxyphenyl)-5-chloro-N4-(2-(isopropylsulfonyl)phenyl)pyrimidine-2,4-diamine], the GI50 with H3122 cells (setting [1]) stood at 0.7 µM; with H2228 cells (setting [2]) it was 0.51 µM.

Regarding `COc1ccc(CCN)cc1Nc1ncc(Cl)c(Nc2ccc(F)cc2S(=O)(=O)C(C)C)n1` [Example 32, N2-(5-(2-aminoethyl)-2-methoxyphenyl)-5-chloro-N4-(4-fluoro-2-(isopropylsulfonyl)phenyl)pyrimidine-2,4-diamine], the GI50 with H3122 cells (setting [1]) was 0.71 µM; in the data set with H2228 cells (setting [2]) it was 0.64 µM.

On to `COc1ccc(CCN)cc1Nc1ncc(Cl)c(Nc2cc(F)ccc2S(=O)(=O)C(C)C)n1` [Example 33, N2-(5-(2-aminoethyl)-2-methoxyphenyl)-5-chloro-N4-(5-fluoro-2-(isopropylsulfonyl)phenyl)pyrimidine-2,4-diaminehydrochloride], for which the GI50 was 10 µM in the data set on H3122 cells (H3122 cells, three days, SRB) and 10 µM in the data set with H2228 cells (setting [2]).
